# Results: patent US9434769B2, “Peptide compositions and methods for inhibiting herpesvirus infection” (priority 2009, dated 2016)
# Where two headings read alike, the source gives them in different places.
# Experiments:
# Towne GFP strain of HCMV = format: cell-based, Human Cytomegalovirus (HCMV); settings: for inhibition of viral infection: HFF cells, MOI 0.5, 48 hours post infection
# Procedure: The Towne strain of HCMV containing the Green Fluorescent Protein (GFP) expression cassette was obtained from Dr. Dan Streblow at the Oregon Health Science University and was propagated in human foreskin fibroblast (HFF) cells. Viral supernatants were collected, centrifuged to clear cell debris, and filtered through a 0.45 μm filter. HFF cells were grown in Dulbecco's modified Eagle medium (DMEM) supplemented with 10% fetal bovine serum (FBS), penicillin G (100 U/mL), streptomycin ([…]), and GLUTAMAX™ L-glutamine supplement (2 mM) from Invitrogen.
# Human foreskin fibroblasts were seeded at the density of about 3.5×10^5 cells in each well of a 24-well plate about 24 hours prior to infection. The HFF cells were washed with 1×DPBS, and mock or virus infected for about 90 minutes at room temperature (RT) with the Towne GFP strain of HCMV at about 0.5 multiplicity of infection (MOI), preincubated with a range of concentrations of inhibitory peptides at about 37° C. for about 90 minutes. After the infection, virus mixture was removed and 10% FBS complete DMEM was added to each well and cells were incubated at about 37° C. for about 48 hours. GFP positive cells were visualized about 48 hours post infection by fluorescence microscopy and then quantified using flow cytometry. […] HFF cells were trypsinized, centrifuged, and resuspended in 1% FBS-Dulbecco's phosphate buffered saline (DPBS). GFP positive cells were quantified using flow cytometry (CYTOMICS FC 500 from Beckman Coulter, Fullerton, Calif.).
# All of the synthetic peptides were tested at the following concentrations: about 100 μM, 50 μM, 25 μM, 10 μM, 5 μM, 2.5 μM, 1.25 μM, 0.625 μM, 0.3125 μM, 0.156 μM, and 0.078 μM.
# HSV-1 McIntyre strain = experiment: Inhibition of HSV-1 infection of Vero cells (Crystal Violet staining); format: cell-based, Herpes Simplex Virus 1 (HSV-1); settings: MOI 0.001, peptide 2.5 to 100 μM; for inhibition of HSV-1 infection: 48 hours
# Procedure: FIG. 6 illustrates inhibition of HSV-1 infection by HCMV gB peptides. To evaluate the ability of newly designed HCMV gB-specific peptide to inhibit HSV-1 infection, Vero cells were infected for about 90 minutes at room temperature with HSV-1 (McIntyre strain; MOI=0.001) that was preincubated with a range of concentrations of four different synthetic peptides at about 37° C. for about 90 minutes. Each treatment was done in triplicate, where A=media, B=HSV-1 MOI of 0.001, C=100 μM peptide and virus, D=50 μM peptide and virus, E=25 μM peptide and virus, F=10 μM peptide and virus, G=5 μM peptide and virus, H=2.5 μM peptide and virus. HCMV gB peptides (Peptide 174-200 (SEQ ID NO: 3), Peptide 233-263 (SEQ ID NO: 4), and Peptide 264-291 (SEQ ID NO: 5)) that are within domain II were inhibitory against HSV-1 infection. Peptide 476-494 (SEQ ID NO: 7) corresponds to trimerization domain of HCMV gB that contains extended α-helices important in the formation of HCMV gB homotrimer during fusion of HCMV virion and lipid membrane of the host cell. Overlapping inhibitory HSV-1 peptides span regions 496-510 and 501-515 of HSV-1 gB (SEQ ID NO: 8) and are analogous to HCMV gB Peptide 476-494 (SEQ ID NO: 7).
# To evaluate the ability of HCMV gB peptides to inhibit infection by HSV-1, Vero cells were plated at a density of about 1.5×10^5 cells in each well of a 24 well-plate 24 hours prior to infection. The cells were washed and mock- or virus-infected for about 90 minutes at room temperature with HSV-1 McIntyre strain (ATCC) of about 0.001 MOI preincubated with a range of concentrations of four different synthetic peptides at about 37° C. for about 90 minutes. After exposure to the virus, the virus mixture was removed and the cells were overlayed with 2% FBS MEM containing 1% methylcellulose. Cells were incubated for about 48 hours at about 37° C. After about 48 hours, the cells were fixed, stained with Crystal Violet, and air dried.
# In FIG. 6, each treatment was done in triplicate, where A=media, B=HSV-1 MOI of 0.001, C=100 μM peptide and virus, D=50 μM peptide and virus, E=25 μM peptide and virus, F=10 μM peptide and virus, G=5 μM peptide and virus, H=2.5 μM peptide and virus. […] Peptide 476-494 (SEQ ID NO: 7) corresponds to the trimerization domain of HCMV gB, which contains extended α-helices important in the formation of HCMV gB homotrimer during fusion of HCMV virion and lipid membrane of the host cell. Overlapping inhibitory HSV-1 peptides that span regions 496-510 and 501-515 of the HSV-1 gB protein (SEQ ID NO: 8) are analogous to HCMV gB peptide 476-494 (SEQ ID NO: 7). As predicted, HCMV Peptide 476-494 (SEQ ID NO: 7) worked best at the concentration of about 2.5 μM.
# HCMV TRpMIA = experiment: Inhibition of HCMV TRpMIA infection of HFF cells (IE-1/IE-2 positive cells); format: cell-based, Human Cytomegalovirus (HCMV); settings: for significance of inhibition of infection: vs non-treated infected control
# Procedure: In order to assess the ability of the peptides of the present invention to inhibit a clinically significant HCMV (HCMV TRpMIA), Peptide 174-200 (SEQ ID NO:3), Peptide 233-263 (SEQ ID NO: 4), and Peptide 264-291 (SEQ ID NO: 5), were tested for inhibition of HCMV TRpMIA infection of HFF cells under the assay conditions similar to these described in Example 2 for the Towne strain of HCMV, above. In particular, HFF cells were plated in 96-well plates at a density of about 10,000 cells-per-well about 24 hours […]. Individual inhibitory peptides were evaluated against 0.5 MOI HCMV TRpMIA preincubated with various concentrations in the range of about 0.078 micromolar to about 100 micromolar. The results obtained from these assays are shown in FIG. 13, FIG. 14, and FIG. 15 for Peptide 174-200, Peptide 233-263, and Peptide 264-291, respectively. The degree of HCMV infection was determined by evaluating the number of cells expressing immediate-early 1 (IE-1) or IE-2 HCMV proteins 24 hours post-infection. Treatments resulting in significant reductions in the number of cells that were positive for IE 1, IE-2, or both, compared to non-treated control HCMV infected cells, are denoted by a * (p<0.05), ** (p<0.01), and *** (p<0.001, one-way ANOVA and Tukey's post test). Variants and derivatives of Peptide 233-263 (SEQ ID NO: 4) also were prepared and tested in the same assay. The sequences of the tested variants and derivatives are shown in Table 4, with additions or modifications from SEQ ID NO: 4 shown in boldface type.
# [1] = pregnancy; cited from earlier work
# HIV-1 = settings: cited from earlier work
# [2] = 50 micromolar, 24 hours post-infection
# [3] = 100 micromolar, 24 hours post-infection
# [4] = 25 micromolar, 24 hours post-infection
# [5] = 25 micromolar to 100 micromolar
substance,measurement,setting,value
"FFIFPNYTIVSDFGRPNAA (human cytomegalovirus glycoprotein B peptide) [Peptide 297-315, synthetic peptide of HCMV gB residues 297-315]",inhibition of viral infection,Towne GFP strain of HCMV; peptide 50 μM,about 40%
"HFFATSTGDVVYISPFYNGTNRNASYFG (human cytomegalovirus glycoprotein B peptide) [Peptide 264-291, synthetic peptide of HCMV gB residues 264-291]",inhibition of viral infection,Towne GFP strain of HCMV; peptide 5 μM,about 70.5%
same,inhibition of HSV-1 infection,HSV-1 McIntyre strain,inhibited HSV-1 infection
same,significance of inhibition of infection,HCMV TRpMIA; [2],* (* (p<0.05))
same,significance of inhibition of infection,HCMV TRpMIA; [3],* (* (p<0.05))
"HNLVYAQLQFTYDTLRGYI (human cytomegalovirus glycoprotein B peptide) [Peptide 476-494, synthetic peptide of the trimerization domain of HCMV gB, residues 476-494]",number of HCMV infected cells versus peptide concentration,Towne GFP strain of HCMV; decreasing peptide concentration,the number of HCMV infected cells decreased as the concentration of this peptide decreased
same,inhibitory activity against HCMV strain Towne-GFP,Towne GFP strain of HCMV; high concentrations tested,did not show any inhibitory activity
same,concentration at which the peptide worked best against HSV-1,HSV-1 McIntyre strain,about 2.5 μM
KDQWHSRGSTWLYRETANLNAMLTITTARSKYPY (Modified HCMV gB peptide) [Peptide 233-263.1],inhibition of HCMV TRpMIA infection compared to Peptide 233-263,HCMV TRpMIA,less effective
same,inhibition relative to the controls,HCMV TRpMIA,some level of inhibition
KDQWHSRGSTWLYRETANLNAMLTITTARSKYPYHFFATS [Peptide 233-263.4],inhibition of HCMV TRpMIA infection compared to Peptide 233-263,HCMV TRpMIA,less effective
same,inhibition relative to the controls,HCMV TRpMIA,some level of inhibition
VTVKDQWHSRGSTWLYRETANLNAMLTITTARSKYPY (Modified HCMV gB peptide) [Peptide 233-263.2],inhibition of HCMV TRpMIA infection compared to Peptide 233-263,HCMV TRpMIA,less effective
same,inhibition relative to the controls,HCMV TRpMIA,some level of inhibition
WEIHHINKFAQAYSSYSRVIGGTVFVA [Peptide 174-200],inhibition of viral infection,Towne GFP strain of HCMV; peptide 2.5 μM,~62%
same,inhibition of viral infection,Towne GFP strain of HCMV; peptide 5 μM,about 51%
same,inhibition of viral infection,Towne GFP strain of HCMV; peptide 100 μM,about 80%
same,inhibition of HSV-1 infection,HSV-1 McIntyre strain,inhibited HSV-1 infection
same,significance of inhibition of infection,HCMV TRpMIA; [4],** (** (p<0.01))
same,significance of inhibition of infection,HCMV TRpMIA; [2],* (* (p<0.05))
same,significance of inhibition of infection,HCMV TRpMIA; [3],"*** (*** (p<0.001, one-way ANOVA and Tukey's post test))"
WHSRGSTWLYRAETANLNAMLTITTARSKYPY (Modified HCMV gB peptide) [Peptide 233-263.5],inhibition of HCMV TRpMIA infection compared to Peptide 233-263,HCMV TRpMIA,less effective
same,inhibition relative to the controls,HCMV TRpMIA,some level of inhibition
WHSRGSTWLYRETANLNAMLTITTARSKYPY [Peptide 233-263],inhibition of infection seen in fluorescent and bright light images (FIG. 4),"Towne GFP strain of HCMV; 100 μM, MOI 0.5, 48 hours post-infection",effectively inhibited infection of the cells
same,inhibition of viral infection,Towne GFP strain of HCMV; peptide 2.5 μM,about 60%
same,inhibition of viral infection,Towne GFP strain of HCMV; peptide 50 μM,about 92%
same,inhibition of viral infection,Towne GFP strain of HCMV; peptide 100 μM,about 97%
same,inhibition of HSV-1 infection,HSV-1 McIntyre strain,inhibited HSV-1 infection
same,significance of inhibition of infection,"HCMV TRpMIA; 5 micromolar, 24 hours post-infection",* (* (p<0.05))
same,significance of inhibition of infection,"HCMV TRpMIA; 10 micromolar, 24 hours post-infection","*** (*** (p<0.001, one-way ANOVA and Tukey's post test))"
same,significance of inhibition of infection,HCMV TRpMIA; [4],"*** (*** (p<0.001, one-way ANOVA and Tukey's post test))"
same,significance of inhibition of infection,HCMV TRpMIA; [2],"*** (*** (p<0.001, one-way ANOVA and Tukey's post test))"
same,extent of inhibition of infection,HCMV TRpMIA; 50 to 100 micromolar,almost complete inhibition
same,significance of inhibition of infection,HCMV TRpMIA; [3],"*** (*** (p<0.001, one-way ANOVA and Tukey's post test))"
WHSRGSTWLYRETANLNAMLTITTARSKYPYGRKKRRQRRRP (human cytomegalovirus glycoprotein B peptide) [Peptide 233-263.8],inhibition of HCMV TRpMIA infection compared to Peptide 233-263,HCMV TRpMIA,less effective
same,inhibition relative to the controls,HCMV TRpMIA,some level of inhibition
WHSRGSTWLYRETANLNAMLTITTARSKYPYHFF (Modified HCMV gB peptide) [Peptide 233-263.3],inhibition of HCMV TRpMIA infection compared to Peptide 233-263,HCMV TRpMIA,less effective
same,inhibition relative to the controls,HCMV TRpMIA,some level of inhibition
WHSRGSTWLYRETANLNAMLTITTARSKYPYP (Modified HCMV gB peptide) [Peptide 233-263.6],inhibition of HCMV TRpMIA infection compared to Peptide 233-263,HCMV TRpMIA,less effective
same,inhibition relative to the controls,HCMV TRpMIA,some level of inhibition
WHSRGSTWLYRETANLNAMLTITTARSKYPYRRRRRRRRR (human cytomegalovirus glycoprotein B peptide) [Peptide 233-263.9],extent of inhibition of infection,HCMV TRpMIA; [5],almost complete inhibition
same,significance of inhibition of infection,HCMV TRpMIA; [5],"*** (*** (p<0.001, one-way ANOVA and Tukey's post test))"
same,inhibition of HCMV TRpMIA infection compared to Peptide 233-263,HCMV TRpMIA,significant improvement
enfuvirtide,crossing of the placenta,[1],does not cross the placenta
same,vertical transmission of HIV-1 in pregnancy,HIV-1,prevents vertical transmission of HIV-1 in pregnancy
